Values of other authors as cited in US11324828B2, “Hydrogel polymeric compositions and methods” (Incept, LLC, priority 2007, dated 2022).
Like-named read-outs stand apart in the source and are kept apart here.

Tests used:
[1] = not given; remark: listed apart in the source

Structure (SMILES) | water solubility | Solubility ([1]; in water) | also measured
CCCCN1CCCCC1C(=O)Nc1c(C)cccc1C (stereo not drawn) [Bupivacaine] | about 86 mg/L | – | –
O=C(O)Cc1ccccc1Nc1c(Cl)cccc1Cl [Diclofenac Sodium] | about 1113 mg/L | – | –
CCc1cccc2c3c([nH]c12)C(CC)(CC(=O)O)OCC3 (stereo not drawn) [Etodolac] | – | Insoluble in water | –
CC(C(=O)[O][Ca][O]C(=O)C(C)c1cccc(Oc2ccccc2)c1)c1cccc(Oc2ccccc2)c1 (stereo not drawn) [Fenoprofen Calcium] | – | Slightly soluble in water | –
Cc1ccc(Cl)c(Nc2ccccc2C(=O)[O-])c1Cl.[Na+] [Meclofenamate Sodium] | – | – | Solubility ([1]; @ pH 7.2): <50 μg/mL @ pH 7.2 50 mg/mL @ pH 9.0
NC(=O)Cc1cccc(C(=O)c2ccccc2)c1N [Nepafenac] | – | – | Solubility ([1]; no pH or medium printed): <1 mg/ml (The drug is available as 0.1% suspension)
